Results taken from patent publication US7932255B2, “2-aminocarbonyl substituted piperazine or diaza-cyclic compounds as apoptosis protein inhibitors (lap) modulators” (Novartis AG, priority 2006, dated 2011).
Where no end group is shown, it is not given here.

Each molecule was assayed on GST-BIR3 fusion protein (assay: FMAT Smac peptide / GST-BIR3 competition assay). Conditions: competing GST-BIR3 off the FMAT beads; read-out: IC50 for non-biotinylated Smac (FMAT).
Format: binding
Procedure: In order to measure the ability of the inventive compounds to bind the BIR3 peptide binding pocket, a solution phase assay on the FMAT or ELISA technology platform is utilized.
Biotinylated Smac 7-mer peptide (AVPIAQK, lysine ε-amino group is biotinylated) is immobilized on streptavidin coated beads. GST-BIR3 fusion protein is precipitated with FMAT beads and is detected using fluorescent tagged anti-GST antibodies. […] The IC50 for non-biotinylated Smac is 400 nM.

Row | IC50 [µM] | Molecule
1 | 0.4 | AVPIAQK [non-biotinylated Smac]

These molecules were tested against T1, XIAP (Homo sapiens, UniProt P98170) (assay: Disruption of the Smac peptide-(XIAP)BIR3 protein-protein interaction (Tables 2 and 3)). Conditions: Series A compounds, Table 2; read-out: XIAP IC50.
T1 construct: GST
Format: binding
Outline: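 Compounds compete with immobilized Smac peptide for the XIAP BIR3 pocket. Percent inhibition at 4 concentrations (usually 3- or 10-fold series from 10 μM); IC50 by logarithmic regression, normalized to an average reference-inhibitor IC50.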

T1 sequence (P98170 248-358 limits assumed, species assumed): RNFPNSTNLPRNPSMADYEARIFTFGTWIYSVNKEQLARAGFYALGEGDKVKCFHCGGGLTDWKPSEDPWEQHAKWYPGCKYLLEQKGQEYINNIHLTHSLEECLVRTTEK

Row | IC50 [µM] | Molecule
2 | < 10 | CN[C@@H](C)C(=O)N[C@H](C(=O)N1CCN(Cc2ccc(OC)cc2)C[C@H]1C(=O)NC1CCCc2ccccc21)C(C)C (stereo partly drawn) [Compound 6, (S)-4-(4-Methoxy-benzyl)-1-[(S)-3-methyl-2-((S)-2-methylamino-propionylamino)-butyryl]-piperazine-2-carboxylic acid (1,2,3,4-tetrahydro-naphthalen-1-yl)-amide]
3 | < 10 | CN[C@@H](C)C(=O)N[C@H](C(=O)N1CCN(CC2CCCCC2)C[C@H]1C(=O)NC1CCCc2ccccc21)C(C)C (stereo partly drawn) [Compound 19, (S)-4-Cyclohexylmethyl-1-[(S)-3-methyl-2-((S)-2-methylamino-propionylamino)-butyryl]-piperazine-2-carboxylic acid (1,2,3,4-tetrahydro-naphthalen-1-yl)-amide]
4 | < 10 | CN[C@@H](C)C(=O)N[C@H](C(=O)N1CCN(Cc2ccccc2)C[C@H]1C(=O)NC1CCCc2ccccc21)C(C)C (stereo partly drawn) [Compound 54, (S)-4-Benzyl-1-[(S)-3-methyl-2-((S)-2-methylamino-propionylamino)-butyryl]-piperazine-2-carboxylic acid (1,2,3,4-tetrahydro-naphthalen-1-yl)-amide]
5 | < 10 | CN[C@@H](C)C(=O)N[C@H](C(=O)N1CCN(Cc2ccc(F)cc2)C[C@H]1C(=O)NC1CCCc2ccccc21)C(C)C (stereo partly drawn) [Compound 10, (S)-4-(4-Fluoro-benzyl)-1-[(S)-3-methyl-2-((S)-2-methylamino-propionylamino)-butyryl]-piperazine-2-carboxylic acid (1,2,3,4-tetrahydro-naphthalen-1-yl)-amide]
6 | < 10 | CN[C@@H](C)C(=O)N[C@H](C(=O)N1CCN(Cc2ccccc2)C[C@H]1C(=O)NC1CCCc2ccccc21)C(C)C (stereo partly drawn) [Compound 53, (S)-4-Benzyl-1-[(S)-3-methyl-2-((S)-2-methylamino-propionylamino)-butyryl]-piperazine-2-carboxylic acid (1,2,3,4-tetrahydro-naphthalen-1-yl)-amide]
7 | < 10 | CN[C@@H](C)C(=O)N[C@H](C(=O)N1CCN(Cc2ccncc2)C[C@H]1C(=O)NC1CCCc2ccccc21)C(C)C (stereo partly drawn) [Compound 9, (S)-1-[(S)-3-Methyl-2-((S)-2-methylamino-propionylamino)-butyryl]-4-pyridin-4-ylmethyl-piperazine-2-carboxylic acid (1,2,3,4-tetrahydro-naphthalen-1-yl)-amide]
8 | < 10 | CN[C@@H](C)C(=O)N[C@H](C(=O)N1CCN(S(=O)(=O)CCC(F)(F)F)C[C@H]1C(=O)NC1CCCc2ccccc21)C(C)C (stereo partly drawn) [Compound 26, (S)-1-[(S)-3-Methyl-2-((S)-2-methylamino-propionylamino)-butyryl]-4-(3,3,3-trifluoro-propane-1-sulfonyl)-piperazine-2-carboxylic acid (1,2,3,4-tetrahydro-naphthalen-1-yl)-amide]
9 | < 10 | CN[C@@H](C)C(=O)N[C@H](C(=O)N1CCN(C(=O)NCc2ccccc2)C[C@H]1C(=O)NC1CCCc2ccccc21)C(C)C (stereo partly drawn) [Compound 5, (S)-4-[(S)-3-Methyl-2-((S)-2-methylamino-propionylamino)-butyryl]-piperazine-1,3-dicarboxylic acid 1-benzylamide 3-[(1,2,3,4-tetrahydro-naphthalen-1-yl)-amide]]

Same assay, conditions: Series B compounds, Table 3; read-out: XIXP IC50

Row | IC50 [µM] | Molecule
10 | < 10 | CN[C@@H](C)C(=O)N[C@H](C(=O)N1CCN(Cc2ccccc2)C[C@H]1C(=O)NC1Cc2ccccc2C1)C(C)C [Compound 78, (S)-4-Benzyl-1-[(S)-3-methyl-2-((S)-2-methylamino-propionylamino)-butyryl]-piperazine-2-carboxylic acid indan-2-ylamide]
11 | < 10 | CN[C@@H](C)C(=O)N[C@H](C(=O)N1CCN(Cc2ccccc2)C[C@H]1C(=O)NC(c1ccccc1)c1ccccc1)C(C)C [Compound 64, (S)-4-Benzyl-1-[(S)-3-methyl-2-((S)-2-methylamino-propionylamino)-butyryl]-piperazine-2-carboxylic acid benzhydryl-amide]
12 | < 10 | CN[C@@H](C)C(=O)N[C@H](C(=O)N1CCN(Cc2ccccc2)C[C@H]1C(=O)NCCc1ccccc1)C(C)C [Compound 61, (S)-4-Benzyl-1-[(S)-3-methyl-2-((S)-2-methylamino-propionylamino)-butyryl]-piperazine-2-carboxylic acid phenethyl-amide]
13 | < 10 | CN[C@@H](C)C(=O)N[C@H](C(=O)N1CCN(Cc2ccccc2)C[C@H]1C(=O)NCc1ccco1)C(C)C [Compound 82, (S)-4-Benzyl-1-[(S)-3-methyl-2-((S)-2-methylamino-propionylamino)-butyryl]-piperazine-2-carboxylic acid (furan-2-ylmethyl)-amide]
14 | < 10 | CN[C@@H](C)C(=O)N[C@H](C(=O)N1CCN(Cc2ccccc2)C[C@H]1C(=O)NCc1cc(F)cc(F)c1)C(C)C [Compound 84, (S)-4-Benzyl-1-[(S)-3-methyl-2-((S)-2-methylamino-propionylamino)-butyryl]-piperazine-2-carboxylic acid 3,5-difluoro-benzylamide]
15 | < 10 | CN[C@@H](C)C(=O)N[C@H](C(=O)N1CCN(Cc2ccccc2)C[C@H]1C(=O)NCCc1ccc(F)cc1)C(C)C [Compound 71, (S)-4-Benzyl-1-[(S)-3-methyl-2-((S)-2-methylamino-propionylamino)-butyryl]-piperazine-2-carboxylic acid [2-(4-fluoro-phenyl)-ethyl]-amide]
16 | < 10 | CN[C@@H](C)C(=O)N[C@H](C(=O)N1CCN(Cc2ccccc2)C[C@H]1C(=O)NCc1ccc(F)cc1)C(C)C [Compound 70, (S)-4-Benzyl-1-[(S)-3-methyl-2-((S)-2-methylamino-propionylamino)-butyryl]-piperazine-2-carboxylic acid 4-fluoro-benzylamide]
